ChEMBL document CHEMBL1629535, “Novel small molecule inhibitors of MDR Mycobacterium tuberculosis by NMR fragment screening of antigen 85C” (2010)
In brackets after ≈: the same amount, converted by molar mass.

What was measured:
Assay type in all cases: functional
[1] = tested on: Mycolicibacterium smegmatis; test: Growth inhibition of Mycobacterium smegmatis
[2] = tested on: Mycolicibacterium aurum; test: Growth inhibition of multidrug resistance Mycobacterium aurum
[3] = tested on: Mycobacterium tuberculosis; test: Growth inhibition of Mycobacterium tuberculosis H37 by radiometric BACTEC 460 assay

| SMILES | MIC [1] [µg/mL] | MIC [2] [µg/mL] | MIC [3] [µg/mL] |
| --- | --- | --- | --- |
| CC1CCc2c(sc(N)c2C(N)=O)C1 (configuration not stated) | > 32 | – | – |
| CCCC1CCc2c(sc(N)c2C(N)=O)C1 (configuration not stated) | 64 (≈ 269 µM) | – | – |
| [N-]=[N+]=NC[C@H]1O[C@H](O[C@H]2O[C@H](CO)[C@@H](O)[C@H](O)[C@H]2O)[C@H](O)[C@@H](O)[C@@H]1O | – | 200 (≈ 544 µM) | – |
| N#Cc1c(N)sc2c1CCCCC2 | 64 (≈ 333 µM) | – | > 500 |
| CCC1CCc2c(sc(N)c2C#N)C1 (configuration not stated) | 32 (≈ 155 µM) | – | 50 (≈ 242 µM) |
| CCCC1CCc2c(sc(N)c2C#N)C1 (configuration not stated) | 16 (≈ 72.6 µM) | – | 50 (≈ 227 µM) |
| CCC1CCc2c(sc(N)c2C(N)=O)C1 (configuration not stated) | 64 (≈ 285 µM) | – | – |
| CCCOc1ccc2nc(N)sc2c1 | 32 (≈ 154 µM) | – | 20 (≈ 96 µM) |
